89 compounds from ChEMBL document CHEMBL1154466, “3D and quantum QSAR of non-benzodiazepine compounds” (Eur J Med Chem, 2008) can be followed below.

Several values for one entry are separate records, joined by “and”; a condition that tells them apart may be missing. Equal entries are not always repeated.

What is called pIC50 is −log10 of the IC50, conventionally taken in molar units. Low values mean a large IC50, high ones a small IC50.

One test can be described thus: Displacement of [3H]diazepam from benzodiazepine receptor in rat brain. It counts as tissue-based. (In general: Displacement assays read how much labelled ligand stays bound in the presence of the test substance.)
In the case of `CN(C)c1ncnc2c1ncn2Cc1ccccc1Cl`, the pIC50 stood at 4.89.

Compound `CN(C)c1ncnc2c1nc(Br)n2Cc1cccc(NS(C)(=O)=O)c1` registered a pIC50 of 5.82.

In the case of `CN(C)c1ncnc2c1nc(O)n2Cc1cccc(NC=O)c1`, the pIC50 is recorded as 6.89.

In turn, `CNc1nc2c(N(C)C)ncnc2n1Cc1cccc(NC=O)c1` displayed a pIC50 of 6.44.

Turning to `CN(C)c1ncnc2c1nc(O)n2Cc1cccc(N)c1`, the pIC50 is listed as 5.74.

`CN(C)c1ncnc2c1nc(N(C)C)n2Cc1cccc(NC=O)c1` had a pIC50 of 6.96.

Regarding `CNc1nc2c(N(C)C)ncnc2n1Cc1ccccc1`, the negative-log IC50 (pIC50) amounted to 4.77.

`CN(C)c1ncnc2c1ncn2Cc1cccc(NC=O)c1` registered a negative logarithm of the IC50 (pIC50) of 7.47.

Compound `CN(C)c1ncnc2c1nc(Cl)n2Cc1cccc(N)c1` showed a pIC50 of 6.72.

`COC(=O)Nc1cccc(Cn2c(Br)nc3c(N(C)C)ncnc32)c1` returned a pIC50 of 5.28.

In turn, `COc1nc2c(N(C)C)ncnc2n1Cc1cccc(N)c1` had a pIC50 of 6.

`CN(C)c1ncnc2c1nc(N(C)C)n2Cc1ccccc1`: the pIC50 turned out to be 5.24.

Compound `COc1nc2c(N(C)C)ncnc2n1Cc1ccccc1` returned a pIC50 of 5.27.

Take `CC(C)(C)OC(=O)c1cc2c3ccccc3nc-2c[nH]1`: the pIC50 is 8.

As for `CNc1nc2c(N(C)C)ncnc2n1Cc1cccc(N)c1`, the pIC50 came out at 5.14.

The compound `c1ccc(COc2nccc3c2[nH]c2ccccc23)cc1` came in with a pIC50 of 6.

`CCOC(=O)c1cc2c(cn1)[nH]c1ccccc12` displayed a pIC50 of 8.3.

In turn, `CCc1nc(C(=O)OC)cc2c1[nH]c1ccccc12` had a pIC50 of 5.12.

`CCC(C)Oc1nccc2c1[nH]c1ccccc12` (centres undefined) had a pIC50 of 6.33.

In turn, `CC(C)CCOc1nccc2c1[nH]c1ccccc12` showed a pIC50 of 6.27.

Compound `CC(C)Oc1cc2c(cn1)[nH]c1ccccc12` registered a pIC50 of 6.29. This pIC50 and that of the compound before are within 0.2 log units of each other.

`CCCCOc1cc2c(cn1)[nH]c1ccccc12` came in with a pIC50 of 7.01.

For `CC(C)(C)COc1nccc2c1[nH]c1ccccc12`, the pIC50 is 7.02. This pIC50 and that of the compound before are within 0.2 log units of each other.

Compound `COc1cc2c(cn1)[nH]c1ccccc12` gave a pIC50 of 6.91.

With `Clc1cc2c(cn1)[nH]c1ccccc12`, the pIC50 turned out to be 7.35.

Take `CCOc1cc2c(cn1)[nH]c1ccccc12`: the pIC50 is listed as 7.62.

`CCCOc1cc2c(cn1)[nH]c1ccccc12`: the pIC50 came out at 7.96.

Turning to `CC(C)(C)C(=O)c1nccc2c1[nH]c1ccccc12`, the pIC50 is recorded as 6.45.

`CC(C)COc1nccc2c1[nH]c1ccccc12` yielded a pIC50 of 7.03.

As for `CCCC(=O)c1cc2c(cn1)[nH]c1ccccc12`, the pIC50 amounted to 7.64.

Regarding `CCCCc1cc2c(cn1)[nH]c1ccccc12`, the pIC50 is on record as 6.64.

`O=[N+]([O-])c1cc2c3ccccc3nc-2c[nH]1` registered a pIC50 of 6.9.

For `CN(C)c1ncnc2c1nc(Br)n2Cc1cccc(NC=O)c1`, the pIC50 worked out at 7.96.

In turn, `CN(C)c1ncnc2c1nc(N(C)C)n2Cc1cccc(N)c1` returned a pIC50 of 6.22.

In turn, `Cc1nc2c(N(C)C)ncnc2n1Cc1ccccc1` returned a pIC50 of 5.07.

For `CN(C)c1ncnc2c1nc(Br)n2Cc1cccc(N)c1`, the pIC50 was found to be 6.96.

Turning to `CC(=O)Nc1cccc(Cn2c(Br)nc3c(N(C)C)ncnc32)c1`, the pIC50 is 6.08.

In turn, `CN(C)c1ncnc2c1nc(Br)n2Cc1ccccc1` had a pIC50 of 5.52.

Consider `CN(C)c1ncnc2c1nc(Br)n2Cc1cccc(NC(N)=O)c1`, for which the pIC50 amounted to 7.6.

The compound `CN(C)c1ncnc2c1nc(Br)n2Cc1cccc(NC(=O)c2ccccc2)c1` yielded a pIC50 of 5.1.

In turn, `CC(C)(C)COC(=O)c1cc2c3ccccc3nc-2c[nH]1` displayed a pIC50 of 6.12.

`CN(C)c1ncnc2c1ncn2Cc1ccccc1`: the pIC50 was determined as 4.89.

`CN(C)c1ncnc2c1ncn2Cc1ccccc1F` gave a pIC50 of 5.27.

`CN(C)c1ncnc2c1ncn2Cc1cccc(F)c1`: the pIC50 worked out at 5.14.

In the case of `CN(C)c1ncnc2c1ncn2Cc1cccc(O)c1`, the negative logarithm of the IC50 (pIC50) is on record as 5.92.

Compound `CN(C)c1ncnc2c1ncn2Cc1cccc(N)c1` showed a pIC50 of 6.05.

As for `CC(=O)Oc1cccc(Cn2cnc3c(N(C)C)ncnc32)c1`, the negative-log IC50 (pIC50) is 6.36.

For `CN(C)c1ncnc2c1ncn2Cc1cccc(OC(=O)C(C)(C)C)c1`, the pIC50 stood at 5.8.

Regarding `COc1ccccc1Cn1cnc2c(N(C)C)ncnc21`, the negative logarithm of the IC50 (pIC50) came to 4.7.

As to `CN(C)c1ncnc2c1ncn2Cc1cccc(CO)c1`, the pIC50 was 5.3.

For `COC(=O)c1cc2c(cn1)[nH]c1ccccc12` [BETA-CCM], the negative-log IC50 (pIC50) came to 8.3.

In turn, `Cc1nccc2c1[nH]c1ccccc12` [HARMAN] had a pIC50 of 4.91.

Turning to `c1ccc2c(c1)[nH]c1cnccc12` [NORHARMANE], the negative logarithm of the IC50 (pIC50) is reported as 5.79.

A further test is described as follows: Displacement of [3H]flunitrazepam from benzodiazepine receptor in rat forebrain.
For `CCCCc1c(OC)nc2nc(C(=O)c3ccccc3)cn2c1CC`, the negative logarithm of the IC50 (pIC50) came out at 7.469.

For the compound `CCCCc1cc(OC)nc2nc(C(=O)c3ccccc3)cn12`, the negative logarithm of the IC50 (pIC50) amounted to 6.469.

The compound `CCc1cc(OC)nc2nc(C(=O)c3ccccc3)cn12` had a pIC50 of 6.53.

In the case of `CCCc1c(SC)nc2nc(C(=O)c3ccccc3)cn2c1CC`, the pIC50 was found to be 7.328.

Consider `CCc1c(SC)nc2nc(C(=O)c3ccccc3)cn2c1C`, for which the pIC50 is 7.921.

In turn, `CCCc1c(OC)nc2nc(C(=O)c3ccccc3)cn2c1CC` gave a pIC50 of 7.469.

For the compound `CSc1cc(C)n2cc(C(=O)c3ccccc3)nc2n1`, the negative-log IC50 (pIC50) came out at 6.721.

On to `CCCc1c(OC)nc2nc(C(=O)c3ccccc3)cn2c1C`, for which the pIC50 is 7.071.

`COc1nc2nc(C(=O)c3ccccc3)cn2c(C)c1OC` yielded a pIC50 of 6.

`CCc1cn2cc(C(=O)c3ccccc3)nc2nc1OC`: the pIC50 stood at 5.824.

In turn, `C=CCc1c(SC)nc2nc(C(=O)c3ccccc3)cn2c1C` returned a pIC50 of 8.097.

On to `CCCCc1c(OC)nc2nc(C(=O)c3ccccc3)cn2c1C`, for which the pIC50 amounted to 7.377.

`CCc1c(OC)nc2nc(C(=O)c3ccccc3)cn2c1CC` came in with a negative logarithm of the IC50 (pIC50) of 6.971.

Regarding `CCCc1cc(OC)nc2nc(C(=O)c3ccccc3)cn12`, the pIC50 turned out to be 6.272.

Take `COc1cc(C)n2cc(C(=O)c3ccccc3)nc2n1`: the pIC50 is recorded as 6.097.

As for `CCCc1cc(SC)nc2nc(C(=O)c3ccccc3)cn12`, the pIC50 is 7.051.

With `COc1nc2nc(C(=O)c3ccccc3)cn2c(C)c1CC1=CC1`, the pIC50 was 7.523 and 7.347.

For the compound `CCc1c(CC2=CC2)c(OC)nc2nc(C(=O)c3ccccc3)cn12`, the pIC50 was 7.377.

`CCc1c(OC)nc2nc(C(=O)c3ccccc3)cn2c1C` [DIVAPLON] yielded a negative-log IC50 (pIC50) of 7.252.

The next test in a line: Displacement of [3H]diazepam from benzodiazepine receptor.
Take `CCOC(=O)c1ncc2c(c1COC)-c1cc(O)ccc1C2`: the pIC50 came to 9.05.

Compound `CCCOc1cc2c(cn1)Cc1ccccc1-2` returned a pIC50 of 7.96.

In the case of `Nc1cc2c(cn1)Cc1ccccc1-2`, the pIC50 came to 4.6.

The compound `Oc1cc2c(cn1)Cc1ccccc1-2` showed a pIC50 of 5.4.

Compound `CCOC(=O)c1ncc2c(c1COC)-c1cc(OCc3ccccc3)ccc1C2C` (centres undefined) gave a pIC50 of 6.02.

In the case of `Clc1cc2c(cn1)Cc1ccccc1-2`, the pIC50 turned out to be 7.35.

Take `O=[N+]([O-])c1cc2c(cn1)Cc1ccccc1-2`: the pIC50 is listed as 6.9.

As for `S=C=Nc1cc2c(cn1)Cc1ccccc1-2`, the negative-log IC50 (pIC50) is 8.1.

`CCOC(=O)c1ncc2c(c1CC)-c1cc(OCc3ccccc3)ccc1C2` registered a pIC50 of 7.66.

Consider `CCOC(=O)c1cc2c(cn1)Cc1ccc(OCc3ccccc3)cc1-2`, for which the pIC50 came to 8.05.

`CCOC(=O)c1ncc2c(c1COC)-c1cc(OCc3ccccc3)ccc1C2` showed a pIC50 of 9.

`COc1cc2c(cn1)Cc1ccccc1-2` came in with a negative-log IC50 (pIC50) of 6.91.

Compound `CCOC(=O)c1ncc2c(c1COC)-c1cc(OC)ccc1C2` came in with a pIC50 of 9.3.

Compound `CCOC(=O)c1ncc2c(c1COC)-c1ccccc1C2` had a pIC50 of 8.64.

As to `CCOc1cc2c(cn1)Cc1ccccc1-2`, the pIC50 is 7.62.

`COC(=O)c1cc2c(cn1)Cc1ccccc1-2` had a pIC50 of 8.3.

For `c1ccc2c(c1)Cc1cnccc1-2`, the pIC50 is 5.79.
